Test results taken from patent US5866397A, “Human protein tyrosine phosphatase OB protein” (Merck & Co., Inc., priority 1997, dated 1999).
Entries after “also recorded” stand apart in the source; their conditions may differ. Like-named read-outs stand apart in the source and are kept apart here.

Experiments:
[1] = tested on: MB1.8 cells; assay: Osteoblast proliferation (thymidine incorporation) in mouse calvaria derived MB1.8 cells; type: cell-based; settings: micromolar concentrations
[2] = target: PTPε (Mus musculus, UniProt P49446); assay: PTP enzymatic assay with recombinant GST-PTPε fusion protein (FDP substrate)
[3] = tested on: multinucleated TRAP positive osteoclast-like cells; assay: cells; type: cell-based, mouse
[4] = tested on: mononucleated TRAP positive cells; type: cell-based, mouse
[5] = tested on: rat osteoclasts; assay: cells; type: cell-based
[6] = tested on: osteoblasts and bone marrow cells
[7] = tested on: bone cells / osteoblasts; settings: cited from earlier work
[8] = tested on: bone resorption; settings: organ cultures; Krieger and Tashjian; cited from earlier work
[9] = target: T1, PTP-OB (Homo sapiens, UniProt Q13332); assay: PTP enzymatic assay with recombinant GST-PTP-OB fusion protein (FDP substrate); type: biochemical; settings: pH 5.65, FIG. 8
T1 construct: we expressed the cytoplasmic domain of PTP-OB and PTPε in bacteria as a GST-fusion protein; made in house; host or cells: bacteria (vector pGEX-2TX, Pharmacia)
T1 sequence (Q13332 1303-1928 isoform Q13332-3 C1437R/N1685K): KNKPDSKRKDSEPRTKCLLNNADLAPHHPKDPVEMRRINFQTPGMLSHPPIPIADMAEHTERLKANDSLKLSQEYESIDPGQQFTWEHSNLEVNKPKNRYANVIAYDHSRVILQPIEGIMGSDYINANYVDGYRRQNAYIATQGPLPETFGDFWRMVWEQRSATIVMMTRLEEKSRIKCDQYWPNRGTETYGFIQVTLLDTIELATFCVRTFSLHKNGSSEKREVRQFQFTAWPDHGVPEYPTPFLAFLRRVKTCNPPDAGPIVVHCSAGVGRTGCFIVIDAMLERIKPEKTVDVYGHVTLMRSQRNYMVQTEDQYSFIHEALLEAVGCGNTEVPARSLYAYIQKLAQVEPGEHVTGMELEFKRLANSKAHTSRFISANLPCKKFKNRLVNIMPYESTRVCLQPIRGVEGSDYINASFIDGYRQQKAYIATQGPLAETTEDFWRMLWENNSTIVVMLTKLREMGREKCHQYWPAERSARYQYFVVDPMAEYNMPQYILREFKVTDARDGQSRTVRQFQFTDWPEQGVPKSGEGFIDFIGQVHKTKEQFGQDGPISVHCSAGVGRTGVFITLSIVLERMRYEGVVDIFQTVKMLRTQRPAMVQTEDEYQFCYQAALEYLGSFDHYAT

[10] = substrate: O=C1OC2(c3ccc(OP(=O)(O)O)cc3Oc3cc(OP(=O)(O)O)ccc32)c2ccccc21; assay: purified protein, by the assay type; settings: other: FDP as substrate of GST-PTPε; pH 5.65

CC(O)(P(=O)(O)O)P(=O)(O)O [etidronate]
thymidine incorporation (mitogenesis) of quiescent osteoblasts [1]: stimulated thymidine incorporation | IC50 [2]: ~400 nM

COC1=C2C[C@@H](C)C[C@H](OC)[C@H](O)[C@@H](C)/C=C(\C)[C@H](OC(N)=O)[C@@H](OC)/C=C\C=C(/C)C(=O)NC(=CC1=O)C2=O [geldanamycin]
inhibition of formation of multinucleated TRAP positive cells [3]: complete inhibition | inhibition of osteoclast formation, in words [3]: potent inhibitor | IC50 ([3]; Mus musculus, Osteoclast-like, read-out: IC50, osteoclast formation): 0.05 µg/mL | appearance/development of mononuclear TRAP positive cells [4]: completely blocked; also recorded: inhibited the development of mononuclear TRAP positive cells

[O]=[V]([O-])([O-])[O-] [orthovanadate]
additional effect when added at earlier days of co-culture [3]: small additional effect | inhibition of formation of multinucleated TRAP positive cells [3]: completely inhibited | inhibition of formation of multinucleated TRAP positive cells, in words [3]: completely inhibited | inhibition of formation of multinucleated osteoclastic cells when added at any time up to day six [3]: ≥ 90% | inhibition of formation of the fused TRAP positive cells, in words [3]: markedly inhibited | block of formation of multinucleated TRAP positive cells when added at day six of co-culture ([3]; bone marrow/osteoblast co-culture, 1440 min): 80% | IC50 ([3]; read-out: IC50, formation of multinucleated TRAP positive cells): 2000 nM | inhibition of bone resorption, in words [5]: potent inhibitors | reduction of the number of resorption pits ([5]; osteoclasts on bone slices, 1440 min, 10 µM): 80% | IC50 ([5]; read-out: IC50, bone resorption): 2000 nM | thymidine incorporation (mitogenesis) of quiescent osteoblasts [1]: stimulated thymidine incorporation | development of mononucleated TRAP positive cells [4]: did not block | formation of mononucleated TRAP positive cells [4]: produced mononucleated TRAP positive cells | effects on the co-cultured osteoblasts [6]: no ill effects | toxicity for osteoblasts or bone marrow cells [6]: no apparent toxicity | bone cell / osteoblast proliferation [7]: can stimulate osteoblast proliferation; also recorded: stimulated cell proliferation; also recorded: stimulation of cell proliferation | stimulation of bone resorption induced by PTH [8]: inhibited

NCCCC(O)(P(=O)(O)O)P(=O)(O)O [alendronate]
inhibition of formation of multinucleated TRAP positive cells [3]: completely inhibited | inhibition at 10 µM ([5]; Rattus norvegicus, Osteoclast, 24 h, read-out: reduction of the number of resorption pits): 80% | IC50 [9]: 200 nM | thymidine incorporation (mitogenesis) of quiescent osteoblasts [1]: stimulated thymidine incorporation | development of mononucleated TRAP positive cells [4]: did not block

B1: PTPε (Mus musculus) (protein)
chain: RFRKQRKAVVSSNDKKMPNGILEEQEQQRVMLLSRSPSGPKKFFPIPVEHLEEEIRVRSADDCKRFREEFNSLPSGHIQGTFELANKEENREKNRYPNILPNDHCRVILSQVDGIPCSDYINASYIDGYKEKNKFIAAQGPKQETVNDFWRMVWEQRSATIVMLTNLKERKEEKCYQYWPDQGCWTYGNIRVCVEDCVVLVDYTIRKFCIHPQLPDSCKAPRLVSQLHFTSWPDFGVPFTPIGMLKFLKKVKTLNPSHAGPIVVHCSAGVGRTGTFIVIDAMMDMIHSEQKVDVFEFVSRIRNQRPQMVQTDVQYTFIYQALLEYYLYGDTELDVSSLERHLQTLHSTATHFDKIGLEEEFRKLTNVRIMKENMRTGNLPANMKKARVIQIIPYDFNRVILSMKRGQEFTDYINASFIDGYRQKDYFMATQGPLAHTVEDFWRMVWEWKSHTIVMLTEVQEREQDKCYQYWPTEGSVTHGDITIEIKSDTLSEAISVRDFLVTFKQPLARQEEQVRMVRQFHFHGWPEVGIPAEGKGMIDLIAAVQKQQQQTGNHPITVHCSAGAGRTGTFIALSNILERVKAEGLLDVFQAVKSLRLQRPHMVQTLEQYEFCYKVVQDFIDIFSDYANFK
Km [10]: 70 µM
